Reference: the supplement of paper PMC11451515

System: P12-Ichikawa
Test: cell viability relative to DMSO control; higher = less cytotoxic
Details: 48 h
Procedure, shortened: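 Cells were incubated for 48 h at 37°C before CellTiter-Glo One luminescence was read. The cells were NOMO1 or SEM (500 cells/well) or P12-Ichikawa (1000 cells/well) leukemia cells, adapted for at least four passages in each medium and seeded in 1536-well plates (5 μl). Dosing used library compounds in DMSO applied by pin over 11 threefold points, 47 μM to 0.79 nM. Viability is the per-plate percentage of DMSO wells, with cell-free wells as background.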

[1] = HPLM + 10% dialyzed FBS, 0.000781 µM
[2] = HPLM + 10% dialyzed FBS, 0.00234 µM
[3] = HPLM + 10% dialyzed FBS, 0.00702 µM
[4] = HPLM + 10% dialyzed FBS, 0.0211 µM
[5] = HPLM + 10% dialyzed FBS, 0.0632 µM
[6] = HPLM + 10% dialyzed FBS, 0.19 µM
[7] = HPLM + 10% dialyzed FBS, 0.569 µM
[8] = HPLM + 10% dialyzed FBS, 1.71 µM
[9] = HPLM + 10% dialyzed FBS, 5.12 µM
[10] = HPLM + 10% dialyzed FBS, 15.4 µM
[11] = HPLM + 10% dialyzed FBS, 46.1 µM
[12] = RPMI 5 mM glucose + 10% FBS, 0.000781 µM
[13] = RPMI 5 mM glucose + 10% FBS, 0.00234 µM
[14] = RPMI 5 mM glucose + 10% FBS, 0.00702 µM
[15] = RPMI 5 mM glucose + 10% FBS, 0.0211 µM
[16] = RPMI 5 mM glucose + 10% FBS, 0.0632 µM
[17] = RPMI 5 mM glucose + 10% FBS, 0.19 µM
[18] = RPMI 5 mM glucose + 10% FBS, 0.569 µM
[19] = RPMI 5 mM glucose + 10% FBS, 1.71 µM
[20] = RPMI 5 mM glucose + 10% FBS, 5.12 µM
[21] = RPMI 5 mM glucose + 10% FBS, 15.4 µM
[22] = RPMI 5 mM glucose + 10% FBS, 46.1 µM
[23] = RPMI 5 mM glucose + 10% dialyzed FBS, 0.000781 µM
[24] = RPMI 5 mM glucose + 10% dialyzed FBS, 0.00234 µM
[25] = RPMI 5 mM glucose + 10% dialyzed FBS, 0.00702 µM
[26] = RPMI 5 mM glucose + 10% dialyzed FBS, 0.0211 µM
[27] = RPMI 5 mM glucose + 10% dialyzed FBS, 0.0632 µM
[28] = RPMI 5 mM glucose + 10% dialyzed FBS, 0.19 µM
[29] = RPMI 5 mM glucose + 10% dialyzed FBS, 0.569 µM
[30] = RPMI 5 mM glucose + 10% dialyzed FBS, 1.71 µM
[31] = RPMI 5 mM glucose + 10% dialyzed FBS, 5.12 µM
[32] = RPMI 5 mM glucose + 10% dialyzed FBS, 15.4 µM
[33] = RPMI 5 mM glucose + 10% dialyzed FBS, 46.1 µM

Row | SMILES | cell viability [1] | cell viability [2] | cell viability [3] | cell viability [4] | cell viability [5] | cell viability [6] | cell viability [7] | cell viability [8] | cell viability [9] | cell viability [10] | cell viability [11] | cell viability [12] | cell viability [13] | cell viability [14] | cell viability [15] | cell viability [16] | cell viability [17] | cell viability [18] | cell viability [19] | cell viability [20] | cell viability [21] | cell viability [22] | cell viability [23] | cell viability [24] | cell viability [25] | cell viability [26] | cell viability [27] | cell viability [28] | cell viability [29] | cell viability [30] | cell viability [31] | cell viability [32] | cell viability [33]
1 | CCCCCCCCOc1ccccc1C(=O)Nc1ccc(C(=O)OCC[N+](C)(CC)CC)cc1 | 93.6% | 94.9% | 98.2% | 95.8% | 97.7% | 98.3% | 89.1% | 91.4% | 85.6% | 84.2% | 71.8% | 91.6% | 102% | 89.9% | 107% | 104% | 104% | 93.4% | 91.3% | 85.2% | 87.7% | 49% | 89.3% | 83.5% | 88.2% | 90.3% | 95% | 86.2% | 91% | 90.3% | 78.6% | 83.4% | 46.4%
2 | CCCc1nc2c(C)cc(-c3nc4ccccc4n3C)cc2n1Cc1ccc(-c2ccccc2C(=O)O)cc1 | 123% | 124% | 122% | 125% | 126% | 135% | 130% | 127% | 123% | 133% | 123% | – | – | – | – | – | – | – | – | – | – | – | – | – | – | – | – | – | – | – | – | – | –
3 | NCCCC(O)(P(=O)(O)O)P(=O)(O)O.O.O.O.[Na+] | 109% | 113% | 123% | 114% | 114% | 112% | 102% | 97.9% | 68.3% | 45.1% | 19.7% | 120% | 116% | 119% | 119% | 119% | 121% | 112% | 107% | 85.5% | 64.9% | 51.4% | 121% | 121% | 125% | 120% | 117% | 120% | 109% | 97.3% | 76.3% | 46.4% | 35.6%
4 | C/C(=C\c1csc(C)n1)[C@@H]1C[C@@H]2O[C@]2(C)CCC[C@H](C)[C@H](O)[C@@H](C)C(=O)C(C)(C)[C@@H](O)CC(=O)O1 | 33.8% | 32.1% | 28.8% | 58.9% | 28.1% | 22.6% | 23.1% | 25.3% | 30.8% | 17.1% | 21.4% | 18.2% | 19.1% | 23.7% | 44.1% | 24.6% | 22.6% | 24.3% | 22.7% | 25.6% | 24.2% | 27% | 44.5% | 34.4% | 31.2% | 58% | 37.6% | 35.4% | 32.6% | 32.8% | 43.7% | 35.5% | 38%
5 | COCCCOc1ccnc(C[S+]([O-])c2nc3ccccc3[nH]2)c1C (stereo not given) | 107% | 116% | 109% | 105% | 121% | 113% | 123% | 119% | 125% | 113% | 117% | 114% | 109% | 117% | 106% | 112% | 125% | 135% | 130% | 120% | 131% | 119% | 105% | 105% | 114% | 105% | 134% | 132% | 131% | 113% | 115% | 123% | 121%
6 | CNC(=O)c1ccc(N2C(=S)N(c3ccc(C#N)c(C(F)(F)F)c3)C(=O)C2(C)C)cc1F | 98.8% | 106% | 79.6% | 110% | 123% | 117% | 115% | 124% | 114% | 108% | 107% | 107% | 119% | 72% | 109% | 123% | 117% | 122% | 120% | 124% | 116% | 98.5% | 102% | 113% | 80.4% | 108% | 120% | 117% | 119% | 122% | 122% | 112% | 91.1%
7 | C[C@@H](NCc1cc2ccccc2[nH]1)c1cccc2ccccc12 | 88.5% | 88.8% | 93.4% | 93% | 86.8% | 97% | 95.5% | 97.7% | 90% | 93.4% | 90.2% | 89.1% | 90.2% | 87.5% | 95.9% | 92.9% | 91.3% | 94.8% | 88% | 89.8% | 88.8% | 92.2% | 84.1% | 86.6% | 83.2% | 91.4% | 77.3% | 84.7% | 85.5% | 92.6% | 88.5% | 90.7% | 89.5%
8 | Cc1ccc(NC(=O)c2cccc(N(C)C)c2)cc1NC(=O)c1ccc(O)cc1 | 120% | 120% | 118% | 116% | 111% | 116% | 119% | 108% | 108% | 108% | 96.7% | 114% | 122% | 120% | 127% | 113% | 111% | 119% | 113% | 113% | 102% | 95.2% | – | – | – | – | – | – | – | – | – | – | –
9 | CO[C@H]1/C=C/O[C@@]2(C)Oc3c(C)c(O)c4c(O)c(c(/C=N/N5CCN(C)CC5)c(O)c4c3C2=O)NC(=O)/C(C)=C\C=C\[C@H](C)[C@H](O)[C@@H](C)[C@@H](O)[C@@H](C)[C@H](OC(C)=O)[C@@H]1C | 116% | 117% | 124% | 120% | 127% | 114% | 108% | 110% | 99.8% | 94.9% | 63.7% | 128% | 111% | 118% | 118% | 124% | 112% | 123% | 116% | 98.3% | 89.9% | 75.4% | 124% | 120% | 123% | 123% | 122% | 111% | 109% | 115% | 93.2% | 82% | 70.6%
10 | O=C(C1CC1)N1CC[C@@H](Cn2c(-c3ccc(-c4ccc5occc5c4)cc3)nc3cnccc32)C1 | 101% | 117% | 108% | 114% | 117% | 126% | 122% | 127% | 124% | 119% | 111% | 92.7% | 117% | 120% | 121% | 131% | 119% | 124% | 132% | 111% | 124% | 83.5% | 106% | 112% | 102% | 120% | 116% | 128% | 121% | 128% | 123% | 119% | 93%
11 | CN1CCN(Cc2ccc(NC(=O)Nc3ccc(Oc4cc(NC(=O)C5CC5)ncn4)cc3)cc2C(F)(F)F)CC1 | 100% | 108% | 103% | 113% | 114% | 113% | 46.7% | 9.49% | 10.2% | 8.59% | 0.0522% | 105% | 110% | 117% | 121% | 122% | 132% | 44.7% | 9.59% | 8.79% | 6.05% | 0.799% | 92.4% | 113% | 111% | 121% | 122% | 123% | 35.4% | 12.8% | 11.6% | 11.8% | 0.55%
12 | CC1(C)Cc2c(sc(NC(=S)NC(=O)c3ccccc3)c2C(=O)O)CO1 | 99.1% | 109% | 107% | 110% | 109% | 115% | 118% | 114% | 101% | 99.2% | 101% | 103% | 110% | 110% | 116% | 119% | 118% | 121% | 112% | 110% | 108% | 106% | 103% | 112% | 108% | 110% | 115% | 109% | 126% | 122% | 114% | 105% | 106%
13 | CN1/C=C(\N=C(NC2=CC=C(C=C2)C(=O)N3CCOCC3)/C1=O)/C4=C(C)C(=CC=C4)NC(=O)C5=CC=C(C=C5)C(C)(C)C | 107% | 108% | 108% | 101% | 104% | 103% | 106% | 98.1% | 98.3% | 88.6% | 89.5% | 102% | 95.4% | 107% | 91.2% | 106% | 110% | 97.9% | 100% | 98.5% | 95.4% | 94.4% | 106% | 111% | 103% | 101% | 108% | 106% | 105% | 106% | 107% | 93.7% | 85.7%
14 | CC(Cc1ccc(O)c(O)c1)(NN)C(=O)O (stereo not given) | 110% | 112% | 107% | 111% | 130% | 114% | 105% | 102% | 100% | 101% | 78.5% | 102% | 113% | 122% | 120% | 113% | 111% | 108% | 100% | 112% | 113% | 65.3% | 107% | 116% | 115% | 115% | 114% | 109% | 108% | 104% | 110% | 110% | 55.7%
15 | CC(C)C(=O)Nc1ncc(-c2cc(C(F)F)nn2-c2c(Cl)cccc2Cl)s1 | 122% | 122% | 117% | 120% | 126% | 136% | 129% | 131% | 134% | 132% | 63.5% | – | – | – | – | – | – | – | – | – | – | – | – | – | – | – | – | – | – | – | – | – | –
